{"source": "ChEMBL document CHEMBL1155559", "about": "“Hepatoprotective diastereomeric lignans from Saururus chinensis herbs” (J Nat Prod, 2000)"}
{"tested_on": "Hepatocyte", "assay": "Hepatoprotective activity in Wistar rat CCL4-damaged hepatocyte assessed as blockade of glutamic pyruvic transaminase release at 100 uM relative to control", "assay_type": "functional, cell-based", "units": {"Activity": "%"}}
{"smiles": "C[C@@H]1[C@H]2c3cc4c(cc3O[C@@]35OCOC3=CC(=O)[C@@H](C[C@H]1C)[C@@H]25)OCO4", "Activity": 75.9}
{"smiles": "C[C@@H]1[C@H]2c3cc4c(cc3O[C@@]35OCOC3=CC(=O)[C@H](C[C@H]1C)[C@H]25)OCO4", "note": "[SAUCHINONE A]", "Activity": 78.2}
{"smiles": "C[C@@H]1[C@H]2c3cc4c(cc3O[C@@]35OCOC3=CC(=O)[C@H](C[C@H]1C)[C@@H]25)OCO4", "note": "[SAUCHINONE]", "Activity": 70.1}
{"smiles": "COc1cc(C2Oc3cc([C@H]4Oc5cc(O)cc(O)c5C(=O)[C@@H]4O)ccc3OC2CO)ccc1O", "note": "(some centres undefined) [SILIBININ]", "Activity": 76.6}
